Source: patent US11642333B2, “Inhalable formulation of a solution containing vilanterol trifenatate and umeclidinium bromide” (ANOVENT PHARMACEUTICAL (U.S.), LLC, priority 2019, dated 2023)

Tests used:
[1] = Content of umeclidinium bromide and vilanterol trifenatate in the inhalation solutions (tested results); type: physicochemical
Experimental: 50% benzalkonium chloride and tween-80 according to table 1, were dissolved in 16 g of 95% ethanol for three times, and then transferred into 100 ml volumetric flask. […] Finally, the flask was made to volume with purified water.
50% benzalkonium chloride and tween-80 according to table 3, were dissolved in 95% ethanol according to table 3 for three times, and then transferred into 100 ml volumetric flask. […] Finally, the flask was made to volume with purified water.
50% benzalkonium chloride and tween-80 according to table 5, were dissolved in 95% ethanol according to table 5 for three times, and then transferred into 100 ml volumetric flask. […] Finally, the flask was made to volume with purified water.

[2] = in vivo; cited from earlier work

Dissolution in the solution containing ethanol and tween-80 ([1]; sample I and sample II (table 2)): completely dissolved
Dissolution in the solution containing ethanol and tween-80 ([1]; sample III, sample IV and sample V (table 4)): completely dissolved
Dissolution in the solution containing ethanol and tween-80 ([1]; sample VI, sample VII and sample VIII (table 6)): completely dissolved
SMILES: OC(c1ccccc1)(c1ccccc1)C12CC[N+](CCOCc3ccccc3)(CC1)CC2.[Br-] [Umeclidinium bromide, 1-[2-(Benzyloxy)ethyl]-4-(hydroxydiphenylmethyl)-1-azoniabicyclo [2.2.2] octane bromide]
oral bioavailability [2]: poor
